In patent US12194124B2, “Personal care compositions for treating odor causing bacteria and methods for the same” (Colgate-Palmolive Company, priority 2019, dated 2025):

Test system: C. Striatum
Test: Growth inhibition assay in 96-well plate, optical density of C. Striatum
Type: cell-based, Corynebacterium striatum
Method: The efficacy of 2-butyl octanol for selectively promoting, inhibiting, reducing, and/or treating bacterial growth was evaluated. Particularly, the efficacy of 2-butyl octanol for selectively promoting, inhibiting, reducing, and/or treating bacterial growth of Corynebacterium and Staphylococcus was evaluated. To evaluate the efficacy, an active solution was prepared by emulsifying 2-butyl octanol with a nonionic surfactant, namely, Polysorbate 80. The active solution included the 2-butyl octanol and the Polysorbate 80 in a ratio of about 83:17. Both positive controls (including no active solution) and negative controls (including no bacteria) were also prepared.
A 96-well plate was utilized to evaluate the growth of the respective bacteria at varying dilutions. Each of the wells of a 96-well plate was aseptically filled with about 100 μL of Tryptic Soy Broth (TSB). In the first well of each row, about 100 μL of either the active solution (including the 2-butyl octanol and Polysorbate 80) or the desired solvent for the respective positive and negative controls was added to thereby provide a total of about 200 μL in the first well of the each respective row. A multi-channel pipette was then utilized to prepare a two-fold dilution in each column. Specifically, a multi-channel pipette set to about 100 μL was utilized to mix and transfer about 100 μL of the 200 μL from the wells of the first column to the respective wells of a subsequent column. This was repeated for each of the remaining eleven columns. About 100 μL of the twelfth column was removed, thereby leaving about 100 μL in each of the 96 wells. […] Specifically, a phosphate buffered saline (PBS) was utilized for the negative control. About 100 μL of the respective bacteria adjusted to 0.1 optical density (OD) bacteria was added to all other wells. The well plate was then incubated overnight at about 37° C. in a growth inhibition assay machine. Measurements were taken at about one hour increments.

Compound: CCCCCCC(CO)CCCC (stereo not shown) [2-butyl octanol, 2-butyl-1-octanol]
- Measured Optical Density of C. Striatum (0.02% 2-Butyl Octanol, 1 Hour): 0
- Measured Optical Density of C. Striatum (0.02% 2-Butyl Octanol, 2 Hour): 0.086
- Measured Optical Density of C. Striatum (0.02% 2-Butyl Octanol, 3 Hour): 0.13
- Measured Optical Density of C. Striatum (0.02% 2-Butyl Octanol, 4 Hour): 0.139
- Measured Optical Density of C. Striatum (0.02% 2-Butyl Octanol, 5 Hour): 0.143
- Measured Optical Density of C. Striatum (0.02% 2-Butyl Octanol, 6 Hour): 0.144
- Measured Optical Density of C. Striatum (0.02% 2-Butyl Octanol, 7 Hour): 0.144
- Measured Optical Density of C. Striatum (0.02% 2-Butyl Octanol, 8 Hour): 0.144
- Measured Optical Density of C. Striatum (0.02% 2-Butyl Octanol, 9 Hour): 0.146
- Measured Optical Density of C. Striatum (0.02% 2-Butyl Octanol, 10 Hour): 0.149
- Measured Optical Density of C. Striatum (0.02% 2-Butyl Octanol, 11 Hour): 0.155
- Measured Optical Density of C. Striatum (0.02% 2-Butyl Octanol, 12 Hour): 0.163
- Measured Optical Density of C. Striatum (0.02% 2-Butyl Octanol, 13 Hour): 0.178
- Measured Optical Density of C. Striatum (0.02% 2-Butyl Octanol, 14 Hour): 0.21
- Measured Optical Density of C. Striatum (0.02% 2-Butyl Octanol, 15 Hour): 0.254
- Measured Optical Density of C. Striatum (0.02% 2-Butyl Octanol, 16 Hour): 0.322
- Measured Optical Density of C. Striatum (0.02% 2-Butyl Octanol, 17 Hour): 0.404
- Measured Optical Density of C. Striatum (0.02% 2-Butyl Octanol, 18 Hour): 0.52
- Measured Optical Density of C. Striatum (0.04% 2-Butyl Octanol, 1 Hour): 0.006
- Measured Optical Density of C. Striatum (0.04% 2-Butyl Octanol, 2 Hour): 0.058
- Measured Optical Density of C. Striatum (0.04% 2-Butyl Octanol, 3 Hour): 0.088
- Measured Optical Density of C. Striatum (0.04% 2-Butyl Octanol, 4 Hour): 0.1
- Measured Optical Density of C. Striatum (0.04% 2-Butyl Octanol, 5 Hour): 0.111
- Measured Optical Density of C. Striatum (0.04% 2-Butyl Octanol, 6 Hour): 0.117
- Measured Optical Density of C. Striatum (0.04% 2-Butyl Octanol, 7 Hour): 0.121
- Measured Optical Density of C. Striatum (0.04% 2-Butyl Octanol, 8 Hour): 0.124
- Measured Optical Density of C. Striatum (0.04% 2-Butyl Octanol, 9 Hour): 0.127
- Measured Optical Density of C. Striatum (0.04% 2-Butyl Octanol, 10 Hour): 0.13
- Measured Optical Density of C. Striatum (0.04% 2-Butyl Octanol, 11 Hour): 0.133
- Measured Optical Density of C. Striatum (0.04% 2-Butyl Octanol, 12 Hour): 0.136
- Measured Optical Density of C. Striatum (0.04% 2-Butyl Octanol, 13 Hour): 0.141
- Measured Optical Density of C. Striatum (0.04% 2-Butyl Octanol, 14 Hour): 0.149
- Measured Optical Density of C. Striatum (0.04% 2-Butyl Octanol, 15 Hour): 0.166
- Measured Optical Density of C. Striatum (0.04% 2-Butyl Octanol, 16 Hour): 0.192
- Measured Optical Density of C. Striatum (0.04% 2-Butyl Octanol, 17 Hour): 0.234
- Measured Optical Density of C. Striatum (0.04% 2-Butyl Octanol, 18 Hour): 0.298
- Measured Optical Density of C. Striatum (0.08% 2-Butyl Octanol, 1 Hour): 0.014
- Measured Optical Density of C. Striatum (0.08% 2-Butyl Octanol, 2 Hour): 0.07
- Measured Optical Density of C. Striatum (0.08% 2-Butyl Octanol, 3 Hour): 0.108
- Measured Optical Density of C. Striatum (0.08% 2-Butyl Octanol, 4 Hour): 0.118
- Measured Optical Density of C. Striatum (0.08% 2-Butyl Octanol, 5 Hour): 0.124
- Measured Optical Density of C. Striatum (0.08% 2-Butyl Octanol, 6 Hour): 0.127
- Measured Optical Density of C. Striatum (0.08% 2-Butyl Octanol, 7 Hour): 0.129
- Measured Optical Density of C. Striatum (0.08% 2-Butyl Octanol, 8 Hour): 0.131
- Measured Optical Density of C. Striatum (0.08% 2-Butyl Octanol, 9 Hour): 0.132
- Measured Optical Density of C. Striatum (0.08% 2-Butyl Octanol, 10 Hour): 0.133
- Measured Optical Density of C. Striatum (0.08% 2-Butyl Octanol, 11 Hour): 0.133
- Measured Optical Density of C. Striatum (0.08% 2-Butyl Octanol, 12 Hour): 0.134
- Measured Optical Density of C. Striatum (0.08% 2-Butyl Octanol, 13 Hour): 0.137
- Measured Optical Density of C. Striatum (0.08% 2-Butyl Octanol, 14 Hour): 0.141
- Measured Optical Density of C. Striatum (0.08% 2-Butyl Octanol, 15 Hour): 0.151
- Measured Optical Density of C. Striatum (0.08% 2-Butyl Octanol, 16 Hour): 0.168
- Measured Optical Density of C. Striatum (0.08% 2-Butyl Octanol, 17 Hour): 0.194
- Measured Optical Density of C. Striatum (0.08% 2-Butyl Octanol, 18 Hour): 0.23
- Measured Optical Density of C. Striatum (0.16% 2-Butyl Octanol, 1 Hour): 0.038
- Measured Optical Density of C. Striatum (0.16% 2-Butyl Octanol, 2 Hour): 0.037
- Measured Optical Density of C. Striatum (0.16% 2-Butyl Octanol, 3 Hour): 0.036
- Measured Optical Density of C. Striatum (0.16% 2-Butyl Octanol, 4 Hour): 0.036
- Measured Optical Density of C. Striatum (0.16% 2-Butyl Octanol, 5 Hour): 0.036
- Measured Optical Density of C. Striatum (0.16% 2-Butyl Octanol, 6 Hour): 0.036
- Measured Optical Density of C. Striatum (0.16% 2-Butyl Octanol, 7 Hour): 0.035
- Measured Optical Density of C. Striatum (0.16% 2-Butyl Octanol, 8 Hour): 0.036
- Measured Optical Density of C. Striatum (0.16% 2-Butyl Octanol, 9 Hour): 0.036
- Measured Optical Density of C. Striatum (0.16% 2-Butyl Octanol, 10 Hour): 0.037
- Measured Optical Density of C. Striatum (0.16% 2-Butyl Octanol, 11 Hour): 0.037
- Measured Optical Density of C. Striatum (0.16% 2-Butyl Octanol, 12 Hour): 0.037
- Measured Optical Density of C. Striatum (0.16% 2-Butyl Octanol, 13 Hour): 0.038
- Measured Optical Density of C. Striatum (0.16% 2-Butyl Octanol, 14 Hour): 0.038
- Measured Optical Density of C. Striatum (0.16% 2-Butyl Octanol, 15 Hour): 0.039
- Measured Optical Density of C. Striatum (0.16% 2-Butyl Octanol, 16 Hour): 0.04
- Measured Optical Density of C. Striatum (0.16% 2-Butyl Octanol, 17 Hour): 0.041
- Measured Optical Density of C. Striatum (0.16% 2-Butyl Octanol, 18 Hour): 0.041
- growth of C. stratium (2-butyl octanol at least about 1.6% or greater (Table 3)): completely inhibited
